Measurements as given in patent publication US20260324651A1 (priority 2022, published 2026).

Tests used:
F. culmorum = assay: Inhibitory effect of pure lipopeptides and their combinations on fungal growth
Experimental: (§1) To further explore the potential synergistic effect between bioactive metabolites assays with single families of bioactive compounds and their combinations were performed.
(§2) Increasing concentrations of pure stocks of surfactin (Sigma S3523, FIG. 4A), fengycin (Sigma SMB00292, FIG. 4B) or iturin (Sigma 11774, FIG. 4C) were added to 48-well microtiter plates containing PDB medium and a fixed fungal spore concentration. Inhibitory effect over two different phytopathogenic species was assayed, F. culmorum (FIG. 4, left) and B. cinerea (FIG. 4, right). Plates were incubated at 25° C. without shaking for 60 hours (in dark conditions) and fungal growth was measured by spectrophotometry at 600 nm.
(§3) Fungal growth inhibition of increasing concentrations of single compounds was compared with compound combinations, where a fixed concentration of one of them was assayed in combination with increasing concentrations of the second metabolite.

B. cinerea = assay: as above
Experimental: as §1, §2, §3

[1] = single lipopeptide, 25° C., 60 hours
[2] = in the presence of surfactin, vs fengycin alone
[3] = with surfactin at 100-200 μg/ml

Substance: surfactin
- inhibitory effect on growth at high concentrations (F. culmorum; 200-400 μg/ml surfactin alone): very modest and barely decreased the growth
- inhibition of fungal growth (F. culmorum; [1]): only compromised pathogen growth very weakly
- inhibitory effect on growth at high concentrations (B. cinerea; 200-400 μg/ml surfactin alone): very modest and barely decreased the growth
- inhibition of fungal growth (B. cinerea; [1]): only compromised pathogen growth very weakly

Substance: iturin
- effective concentration for strong growth inhibition (F. culmorum; [1]): 9 µg/mL
- inhibition of fungal growth (F. culmorum; [1]): potent inhibition of fungal growth
- effective concentration for strong growth inhibition (B. cinerea; [1]): 9 µg/mL
- inhibition of fungal growth (B. cinerea; [1]): potent inhibition of fungal growth

Substance: fengycin
- increase of bioactivity of fengycin in the presence of surfactin (F. culmorum; [2]): up to 6 fold
- inhibition of fungal growth (F. culmorum; [1]): potent inhibition of fungal growth
- effective concentration of fengycin required to inhibit growth (F. culmorum; [3]): 12.5 µg/mL
- increase of bioactivity of fengycin in the presence of surfactin (B. cinerea; [2]): up to 6 fold
- inhibition of fungal growth (B. cinerea; [1]): potent inhibition of fungal growth
- effective concentration of fengycin required to inhibit growth (B. cinerea; [3]): 12.5 µg/mL
